Measurements as given in article PMC10712729, “A Phase I Trial of the Dual MET Kinase/OCT-2 Inhibitor OMO-1 in Metastatic Solid Malignancies Including MET Exon 14 Mutated Lung Cancer” (The Oncologist, 2023).
“Also recorded” adds a separate entry of the source.

Legend:
phosphorylated MET = biological target: T1, phosphorylated MET (Homo sapiens, UniProt P08581, DEL963-1009); assay: Paired biopsy analysis, total and phosphorylated MET by immunohistochemistry; type: in vivo; settings: one patient, NSCLC with MET exon 14 skipping mutation, 200 mg BID
T1 construct: from tissue; host or cells: paired tumour biopsies (baseline and on-treatment) of an NSCLC patient
Procedure: Analysis was performed using PKSolver to define Cmax, trough concentration (Ctrough), AUC∞, AUC0-last, Vd, clearance, elimination half-life (t½), and Tmax of OMO-1.[24] In the paired biopsy analysis, expression of total MET and phosphorylated MET was performed by immunohistochemistry.

OCT-2 [1] = biological target: T2, OCT-2 (Homo sapiens, UniProt O15244); assay: Renal function markers (creatinine, Cystatin C, KIM1) as on-target OCT-2 inhibition; type: in vivo
T2 construct: from tissue; host or cells: patients in vivo (endogenous transporter; serum, plasma and urine markers measured)
T2 sequence (O15244 1-555): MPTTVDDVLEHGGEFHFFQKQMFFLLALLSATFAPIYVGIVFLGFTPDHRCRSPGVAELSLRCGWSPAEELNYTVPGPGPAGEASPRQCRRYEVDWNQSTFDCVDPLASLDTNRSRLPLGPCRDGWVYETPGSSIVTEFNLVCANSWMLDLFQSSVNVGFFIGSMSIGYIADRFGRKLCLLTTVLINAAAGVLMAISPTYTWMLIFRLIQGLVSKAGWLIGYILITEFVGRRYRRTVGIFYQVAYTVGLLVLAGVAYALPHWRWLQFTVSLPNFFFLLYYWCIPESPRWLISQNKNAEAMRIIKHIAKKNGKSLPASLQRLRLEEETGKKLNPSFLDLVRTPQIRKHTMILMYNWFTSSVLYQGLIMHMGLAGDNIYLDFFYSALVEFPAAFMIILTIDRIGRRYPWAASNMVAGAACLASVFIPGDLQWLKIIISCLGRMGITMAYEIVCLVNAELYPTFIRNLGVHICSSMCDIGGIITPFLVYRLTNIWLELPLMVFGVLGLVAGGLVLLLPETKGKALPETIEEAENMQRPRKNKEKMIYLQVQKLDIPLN
Procedure: (§1) The starting dose was 100 mg BID.

OCT-2 [2] = biological target: T2, OCT-2; assay: Plasma tryptophan and kynurenine levels to explore OCT-2 inhibition; type: in vivo
Procedure: as §1

[3] = test system: MET amplified NSCLC or other MET positive solid tumors; assay: Preliminary efficacy by RECIST v1.1, Module 1 Part B cohort 2 (MET basket); type: in vivo, human; settings: 5/5 patients, 200 or 250 mg BID
Procedure: as §1
Safety analyses were descriptive.

[4] = test system: EGFR mutated NSCLC with acquired MET amplification; type: in vivo, human; settings: one patient, 200 mg BID with EGFR TKI; led to interruption
Description: Module 2 (OMO-1 in combination with EGFR TKI) investigated the preliminary efficacy of OMO-1 in patients with activating EGFR mutated NSCLC and an acquired MET amplification after EGFR TKI treatment.

[5] = test system: MET-activated tumor models; settings: preclinical ref 21; cited from earlier work
[6] = set-up: method as in doi:10.1158/1538-7445.am2015-ct309; settings: healthy human volunteers ref 26; cited from earlier work

## FC(F)(c1ccc2ncccc2c1)c1nnc2ccc(-c3ccncc3)nn12 [OMO-1]
Phosphorylated MET
  phosphorylated MET in on-treatment biopsy: near-complete inhibition
  total MET levels in on-treatment biopsy: without affecting total MET levels
OCT-2 [1]; monotherapy OMO-1
  cystatin C and KIM-1, additional markers for renal function: did also not identify any significant renal function issues
OCT-2 [1]; throughout the study
  overall mean creatinine levels: within the normal ranges
OCT-2 [2]; 8 h post-dose, IQR 396-559, pre-dose 509 ng/mL, P = .57
  median kynurenin level: 471 ng/mL
OCT-2 [2]; 8 h post-dose, pre-dose 57, P < .001
  mean kyn/trp ratio: 49
OCT-2 [2]; cycle 1 day 1, 8 h post-dose, pre-dose 9475 ng/mL, P = .014, 30 patients Module 1
  mean tryptophan plasma level: 10 605 ng/mL
OCT-2 [2]; in vivo
  changes in plasma tryptophan levels and kyn/trp ratio, dependence on dose or Cmax: not dose or Cmax dependent
[3]
  clinical benefit: No clinical benefit of any length; also recorded: no clinical efficacy
[4]
  serum Cystatin C increase from baseline: > 1.5 fold
[5]
  tumor growth: complete inhibition of tumor growth
[6]
  renal toxicity: no renal toxicity was observed
